This series is described as follows: Solubility of ketoconazole in solvent media at room temperature. The settings on record: for Solubility: room temperature (21° C.). The series is classed as physicochemical. The procedure: The solubility of ketoconazole in each of isopropyl alcohol, water and polyethoxylated glyceryl cocoate were established at room temperature (21° C.).
The solubility of ketoconazole in a composition of the present invention, prepared as in Example 1, containing 55% isopropyl alcohol, 35% water and 10% polyethoxylated glyceryl cocoate was also established at room temperature (21° C.).

The record followed here is US7732450B2, “Antifungal ketoconazole composition for topical use” (Boult Wade Tennant, priority 2000, dated 2010).

For `CC(=O)N1CCN(c2ccc(OCC3COC(Cn4ccnc4)(c4ccc(Cl)cc4Cl)O3)cc2)CC1` (centres unmarked) [ketoconazole, 1-acetyl-4-[4-[2-(2,4-dichlorophenyl)-2-imidazol-1-ylmethyl-1,3-dioxolan-4-ylmethoxy]phenyl]piperazine], the Solubility came to 2.8 wt % (in composition of 55% isopropyl alcohol, 35% water and 10% polyethoxylated glyceryl cocoate); 0.4722 wt % (in isopropyl alcohol); 0.8682 wt % (in polyethoxylated glyceryl cocoate); 0.0233 wt % (in water). In addition, the “Solubility of ketoconazole in three-component solvent system” value (ternary solvent system (water, alcohol, non-ionic surface active agent)) is “up to 3 wt %”.
